Results published in patent US20120302569A1, “PHENYL-THIAZOLYL INHIBITORS OF PRO-MATRIX METALLOPROTEINASE ACTIVATION” (priority 2011, published 2012).

Tests used:
proMMP9 = target: T1, proMMP9 (Homo sapiens, UniProt P14780); assay: Activation of proMMP9 by human fetal lung fibroblast (HFL-1) cultures (Western blot); assay type: cell-based; conditions: 3.3 μM Compound α
T1 construct: host or cells: HFL-1 human fetal lung fibroblasts
Experimental: Activation of proMMP9 by Human Fetal Lung Fibroblast Cultures
Compound α was assessed additionally for ability to block the maturation of proMMP9 to active MMP9 in cultures of human fetal lung fibroblasts (HFL-1, American Type Culture Collection #CCL-153). Unlike rat synoviocytes, HFL-1 cells were unable to process proMMP9 to the active form without addition of neutrophil elastase. […] Rather, the function of elastase in this assay may be to inactivate tissue inhibitors of matrix metalloproteinases (TIMPs) that repress endogenous pathways of MMP9 activation (Am J Respir Crit. Care Med; 1999; 159:1138-46).
HLF-1 were maintained in monolayer culture in DMEM with 10% FCS and were used between passage numbers 5-15. HLF-1 were embedded in collagen gels as described for rat SCW synoviocytes (vida supra). Half mL gels containing 0.4 million cells were dislodged into wells of 12 well Costar plates containing 1 mL/well of DMEM adjusted to contain 0.05% BSA and 100 ng/mL human TNFα (R&D Systems Cat #210-TA/CF). After overnight culture (37° C. and 5% CO2) wells were adjusted to contain an additional 0.5 mL of DMEM containing 0.05% BSA and with or without 13.2 μM Compound α (final concentration was 3.3 μM Compound α). Next, cultures were adjusted to contain 30 nM human elastase (Innovative Research). The plates were cultured an additional 72 hrs, at which time MMP9 secreted into the conditioned media was bound to gelatin-sepharose and evaluated by Western blot analysis as described for the rat synoviocyte cultures (vida supra). mAb-51/82 detected three forms of MMP9 in HFL-1 cultures.
A second experiment was performed to determine if the 80 kD form was mature active MMP9 and to determine the potency of Compound α as an inhibitor of MMP9 maturation in this assay. HFL-1 cells embedded in collagen gels were cultured as described above in the presence of TNFα overnight and the cultures were then adjusted to contain 30 nM elastase and graded concentrations of Compound α for an additional 72 hrs at which time MMP9 secreted into the conditioned media was bound to gelatin-sepharose and evaluated by Western blot analysis for active MMP9 using pAb-1246 raised against the N-terminal neoepitope of active MMP9 (Table 5). In the absence of Compound α, pAb-1246 readily detected MMP9 with an electrophoretic mobility of approximately 80 kD. […] Inhibition occurred over a dose range with an IC50 of approximately 0.3 μM Compound α.

[1] = test system: rats with SCW-induced arthritis; assay: Efficacy in rats with SCW arthritis (ankle thickness, clinical scores); assay type: in vivo, rat
Text: A polyarthritis can be induced in female Lewis rats following i.p. administration of streptococcal cell wall (SCW) proteoglycan-polysaccharides (PG-PS) (J Exp Med 1977; 146:1585-1602). The model has an acute phase (days 3-7) that is complement and neutrophil-dependent and that resolves. A chronic erosive phase begins at about day ten and is dependent on the development of specific T cell immunity to the PG-GS, which resists digestion and remains present in synovial macrophages for months. Like rheumatoid arthritis, SCW-induced arthritis is reduced by TNF inhibitors, and the dependence of SCW-induced arthritis on macrophages (Rheumatology; 2001; 40:978-987) and the strong association of rheumatoid arthritis severity with synovial-tissue macrophage counts (Ann Rheum Dis; 2005; 64:834-838) makes SCW-arthritis an attractive model for testing potential therapeutic agents. SCW PG-PS 10S (Beckton Dickinson Cat#210866) suspended in saline was vortexed for 30 seconds and sonicated for 3 min with a probe type sonicator prior to injection. Female Lewis (LEW/N) rats, 5-6 weeks of age (80-100 g) were injected (i.p.) with SCW PG-PS (15 μg of rhamnose/gram BW) in the lower left quadrant of the abdomen using a 1 mL syringe fitted with a 23-gauge needle. Control (disease-free) rats were treated in a similar manner with sterile saline. Control rats were sacrificed on day 5 and groups of SCW-injected rats were sacrificed on day 5 when acute inflammation was maximal or on day 18 when chronic inflammation was established.
To induce arthritis, Female Lewis (LEW/N) rats, 5-6 weeks of age (80-100 g) were injected (i.p.) with SCW PG-PS as described above. Eighteen days later, arthritis was well established. Calipers were used to measure the width (anterior to posterior surface) of the left and right hind ankles of each rat. Each ankle was measured 3 times and averaged, and treatment groups were randomized based on ankle thickness (Table 6). Commencing on day 18, randomized groups of arthritic rats (n=5 rats/group) received vehicle or 5, 20, or 50 mg/kg Compound α BID by oral gavage. Vehicle consisted of an aqueous mixture containing 2% (v:v) N-methylpyrrolidone, 5% (v:v) glycerine, and 20% (w:v) captisol. Treatment continued daily through the morning of day 26.
Hind paw inflammation clinical scores were assigned based on swelling and erythema.

T1 sequence (P14780 20-707 limits assumed): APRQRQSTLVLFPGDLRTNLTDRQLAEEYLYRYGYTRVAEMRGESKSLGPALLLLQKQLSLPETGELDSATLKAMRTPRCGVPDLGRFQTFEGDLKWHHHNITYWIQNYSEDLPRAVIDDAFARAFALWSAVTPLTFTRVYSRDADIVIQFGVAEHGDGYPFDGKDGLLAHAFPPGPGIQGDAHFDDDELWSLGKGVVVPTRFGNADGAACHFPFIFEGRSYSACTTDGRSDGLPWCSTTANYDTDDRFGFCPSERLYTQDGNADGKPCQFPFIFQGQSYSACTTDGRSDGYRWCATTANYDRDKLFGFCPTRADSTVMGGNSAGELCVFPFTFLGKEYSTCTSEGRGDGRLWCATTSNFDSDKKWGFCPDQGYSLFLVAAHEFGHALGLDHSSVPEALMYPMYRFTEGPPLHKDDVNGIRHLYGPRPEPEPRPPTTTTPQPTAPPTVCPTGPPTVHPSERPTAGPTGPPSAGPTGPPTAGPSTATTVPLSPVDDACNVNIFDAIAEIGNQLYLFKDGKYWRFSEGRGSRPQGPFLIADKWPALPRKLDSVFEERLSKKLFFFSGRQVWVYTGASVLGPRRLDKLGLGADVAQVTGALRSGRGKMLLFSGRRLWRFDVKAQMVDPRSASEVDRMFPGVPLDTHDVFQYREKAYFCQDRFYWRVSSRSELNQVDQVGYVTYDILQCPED

Percent of total signal 80 kD (proMMP9): 7%
Percent of total signal 86 kD (proMMP9): 47%
Percent of total signal 100 kD (proMMP9): 46%
Signal Total (proMMP9; 30 nM elastase, 72 hrs, mAb-L51/82): 91346 INT*mm^2
Structure (SMILES): Cc1nc(C)c(-c2csc(Nc3cc(S(N)(=O)=O)ccc3OC(C)C)n2)s1 [Compound α, 3-(2′,4′-Dimethyl-[4,5′]bithiazolyl-2-ylamino)-4-isopropoxy-benzenesulfonamide.HBr]
ankle thickness measurements ([1]; 5, 20, 50 mg/kg BID oral, Day 18-26): dose-dependent decrease
clinical score measurements ([1]; 5, 20, 50 mg/kg BID oral, significant effects emerging at 20 mg/kg): dose dependent decrease
inhibition at 5 mg/kg ([1]; Rattus norvegicus, 5 mg/kg BID oral, Day 18-26, read-out: Day 26 % Inh of disease associated increase in ankle thickness): 27%
inhibition at 20 mg/kg ([1]; Rattus norvegicus, 20 mg/kg BID oral, Day 18-26, read-out: Day 26 % Inh of disease associated increase in ankle thickness): 37%
inhibition at 50 mg/kg ([1]; Rattus norvegicus, 50 mg/kg BID oral, Day 18-26, read-out: Day 26 % Inh of disease associated increase in ankle thickness): 46%
